What all share (experiment): growth of human tumour cells (NCI), 48 h
The subject of test [1] is RXF 393.
In test [2] the test system is HOP-62.
Test [3] deals with CCRF-CEM.
For test [4], the system named is TK-10.
For test [5], the system named is OVCAR-4.
The subject of test [6] is K562.
The test system of test [7] is ACHN.
For test [8], the system named is OVCAR-3.
Test [9] relates to SF-539.
Test [10] concerns LOX IMVI.
Test [11] relates to COLO 205.
The subject of test [12] is HCC 2998.
Test [13] deals with HL-60.
The test system of test [14] is HCT-116.
The subject of test [15] is SK-MEL-2.
In test [16] the test system is UACC-257.
For test [17], the system named is NCI-H522.
Test [18] relates to CAKI-1.
The subject of test [19] is NCI-H226.
Test [20] relates to UO-31.

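Grown in 96-well plates, cells were treated for 48 hours with each compound at five concentrations. Insufficient inhibition: endpoint recorded as highest concentration tested. At the GI50, growth is halved.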 Calls of active or inactive are those of the source. Cut-off read from the data, not from the text of the source: active = GI50 up to about 1.1 µM and inactive = higher.

As to `CC(C)N1CSC(=S)N(Cc2ccccc2)C1`, the GI50 is 2.37 µM (inactive) in test [1]; > 10 µM (inactive) in [2]; 2.78 µM (inactive) in test [3]; 3.61 µM (inactive) in test [4]; > 10 µM (inactive) in [5]; 2.48 µM (inactive) in [6]. Moreover, the GI50 is > 10 µM (inactive) in test [7]; 3.87 µM (inactive) in [8]; 1.48 µM (inactive) in test [9]; 3.66 µM (inactive) in test [10]; 3.94 µM (inactive) in test [11]; > 10 µM (inactive) in test [12]. The results for the GI50 in test [13] and in [14] were 0.197 µM (active) and 3.01 µM (inactive), respectively.
As for `CC1(c2sccc2Cl)CC(c2sccc2Cl)=C(C#N)C(=C(C#N)C#N)N1` (centres undefined), the GI50 in [1] was 16.4 µM (inactive); in test [2], 19.3 µM (inactive); in test [3], 38.4 µM (inactive); in test [4], 17.2 µM (inactive); in [5], 25.1 µM (inactive); in test [7], 18.5 µM (inactive). The GI50 in test [15] is 20.3 µM (inactive); in [16] it was 22.4 µM (inactive); in [8] it was 14.9 µM (inactive); in [9] it was 19.8 µM (inactive); in test [10], 19.2 µM (inactive); in [11], 23.1 µM (inactive). For the same compound, the GI50 was 19.1 µM (inactive) in test [17]; 14.5 µM (inactive) in [12]; 20.2 µM (inactive) in test [18]; 34.2 µM (inactive) in test [13]; 17.2 µM (inactive) in test [14].
In the case of `S=CN1CCCCC1`, the GI50 in [19], in [2], in [3], in test [20], in test [4] and in test [6] was > 100 µM (inactive) each time. In addition, the GI50 in [7], in test [15], in test [16], in test [8], in test [9] and in test [10] was > 100 µM (inactive) in each case. The GI50 in test [11], in [17], in [12], in [18], in [13] and in test [14] was > 100 µM (inactive) each time.
On to `Cc1[nH]n(C2=NCCN2)c(=O)c1Cc1ccccc1`, for which the GI50 in [19], in [1], in test [2], in test [3], in [20] and in [4] was > 100 µM (inactive) in each case. The GI50 in [5], in [6], in [7], in [15], in [16] and in [8] was > 100 µM (inactive) each time. Further, the GI50 in test [9], in test [10], in [11], in test [17], in test [18] and in test [13] was > 100 µM (inactive) each time. Also, the GI50 in test [14] was > 100 µM (inactive).
Regarding `O=C(NN1C(=O)C(Cl)C1c1ccc([N+](=O)[O-])cc1)c1ccccc1O` (centres undefined), the GI50 in [1], in [2], in test [3], in [20], in test [4] and in test [5] was > 100 µM (inactive) each time. In addition, the GI50 in test [6], in test [15], in test [16], in test [8], in test [9] and in test [11] was > 100 µM (inactive) each time. For the same compound, the GI50 in test [17], in test [13] and in test [14] was > 100 µM (inactive) each time.
As to `CCOC(=O)C1=C(C)N(NC(N)=O)C2(O)CCCC(=O)C12C` (centres undefined), the GI50 in [19], in [1], in [4], in test [5], in test [7] and in test [15] was > 100 µM (inactive) throughout. Besides, the GI50 in test [16], in test [8], in test [9], in [10], in [11] and in test [17] was > 100 µM (inactive) each time. Also, the values for the GI50 in test [12], in test [18] and in [14] were > 100 µM (inactive), > 100 µM (inactive) and > 10 µM (inactive), respectively.
Take `COc1cc2cc3c4cc(OC)c(OC)cc4cc[n+]3cc2cc1OC`: the GI50 in [19] is 71.4 µM (inactive); in test [1], 46.6 µM (inactive); in test [2] it was > 100 µM (inactive); in test [3] it was > 100 µM (inactive); in test [20], > 100 µM (inactive); in test [5], > 100 µM (inactive). Also, the GI50 in [6] is > 100 µM (inactive); in [15] it was > 100 µM (inactive); in [16], > 100 µM (inactive); in test [8] it was > 45.5 µM (inactive); in test [9], > 100 µM (inactive); in test [10] it was > 100 µM (inactive). The GI50 is 78.2 µM (inactive) in test [11]; 16.4 µM (inactive) in [17]; > 30.6 µM (inactive) in test [12]; > 100 µM (inactive) in [18]; > 100 µM (inactive) in test [14].
In the case of `CCOC(=O)C1=C(C)N(c2ccc(OC)cc2)C2(O)C=CC(O)=C3C(=O)c4ccccc4C(=O)C312` (centres undefined), the GI50 in test [2] is 13.8 µM (inactive); in [3] it was 3.4 µM (inactive); in test [20] it was 13.9 µM (inactive); in test [4], 11 µM (inactive); in test [5] it was 2.99 µM (inactive); in test [6], 12.6 µM (inactive). Besides, the GI50 in [7] is 14.3 µM (inactive); in [15], 16.3 µM (inactive); in [16] it was 15.7 µM (inactive); in test [8], 3.06 µM (inactive); in test [9], 6.92 µM (inactive); in [10], 7.16 µM (inactive). Further, the GI50 in test [11] was 11.5 µM (inactive); in test [17] it was 2.57 µM (inactive); in [18], 8.38 µM (inactive); in test [13], 5.93 µM (inactive); in test [14], 11.3 µM (inactive).
Take `Cc1cc(N(CCOS(C)(=O)=O)CCOS(C)(=O)=O)ccc1C=O`: the GI50 is 1.08 µM (active) in [3]; 2.88 µM (inactive) in test [20]; 2.91 µM (inactive) in test [4]; 18.2 µM (inactive) in test [5]; 9.93 µM (inactive) in test [6]; 0.379 µM (active) in test [7]. For the same compound, the GI50 in [15] was 21.1 µM (inactive); in test [16], 11.7 µM (inactive); in test [8], 6.19 µM (inactive); in test [9], < 0.01 µM (active); in test [10] it was 6.68 µM (inactive); in [11] it was 1.39 µM (inactive). Also, the GI50 was 0.142 µM (active) in [17]; 4.65 µM (inactive) in [12]; 0.127 µM (active) in test [18]; 2.98 µM (inactive) in test [13]; 28.9 µM (inactive) in test [14].
